From patent publication US20250170248A1, “SMARCA DEGRADERS AND USES THEREOF” (Kymera Therapeutics, Inc., priority 2021, published 2025) come the findings set out here.

What all share (type): cell-based
The target of experiment [1] is T1, SMARCA2 (Homo sapiens, UniProt P51531). As to the kind of experiment: MSD SMARCA2 degradation in A549 cell line. The note with it: for Dmax: A549, A549 cells; for Dmax / DC50: 24 h; for DC50 / SMARCA2 MSD A549 degradation 24 h: Average Dmax %: A549 cells; for DC50: read-out: SMARCA2 MSD A549 degradation 24 h: Average external-Abs DC50. In outline: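 A549 cells treated 24 h with compound, 3-fold series from 1000 nM. Lysates captured on MSD plates and SMARCA2 quantified with anti-SMARCA2 and SULFO-TAG secondary antibodies (electrochemiluminescence). DC50 and Dmax (% degradation at 24 h) reported as letter bins.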
T1 sequence (P51531 whole entry): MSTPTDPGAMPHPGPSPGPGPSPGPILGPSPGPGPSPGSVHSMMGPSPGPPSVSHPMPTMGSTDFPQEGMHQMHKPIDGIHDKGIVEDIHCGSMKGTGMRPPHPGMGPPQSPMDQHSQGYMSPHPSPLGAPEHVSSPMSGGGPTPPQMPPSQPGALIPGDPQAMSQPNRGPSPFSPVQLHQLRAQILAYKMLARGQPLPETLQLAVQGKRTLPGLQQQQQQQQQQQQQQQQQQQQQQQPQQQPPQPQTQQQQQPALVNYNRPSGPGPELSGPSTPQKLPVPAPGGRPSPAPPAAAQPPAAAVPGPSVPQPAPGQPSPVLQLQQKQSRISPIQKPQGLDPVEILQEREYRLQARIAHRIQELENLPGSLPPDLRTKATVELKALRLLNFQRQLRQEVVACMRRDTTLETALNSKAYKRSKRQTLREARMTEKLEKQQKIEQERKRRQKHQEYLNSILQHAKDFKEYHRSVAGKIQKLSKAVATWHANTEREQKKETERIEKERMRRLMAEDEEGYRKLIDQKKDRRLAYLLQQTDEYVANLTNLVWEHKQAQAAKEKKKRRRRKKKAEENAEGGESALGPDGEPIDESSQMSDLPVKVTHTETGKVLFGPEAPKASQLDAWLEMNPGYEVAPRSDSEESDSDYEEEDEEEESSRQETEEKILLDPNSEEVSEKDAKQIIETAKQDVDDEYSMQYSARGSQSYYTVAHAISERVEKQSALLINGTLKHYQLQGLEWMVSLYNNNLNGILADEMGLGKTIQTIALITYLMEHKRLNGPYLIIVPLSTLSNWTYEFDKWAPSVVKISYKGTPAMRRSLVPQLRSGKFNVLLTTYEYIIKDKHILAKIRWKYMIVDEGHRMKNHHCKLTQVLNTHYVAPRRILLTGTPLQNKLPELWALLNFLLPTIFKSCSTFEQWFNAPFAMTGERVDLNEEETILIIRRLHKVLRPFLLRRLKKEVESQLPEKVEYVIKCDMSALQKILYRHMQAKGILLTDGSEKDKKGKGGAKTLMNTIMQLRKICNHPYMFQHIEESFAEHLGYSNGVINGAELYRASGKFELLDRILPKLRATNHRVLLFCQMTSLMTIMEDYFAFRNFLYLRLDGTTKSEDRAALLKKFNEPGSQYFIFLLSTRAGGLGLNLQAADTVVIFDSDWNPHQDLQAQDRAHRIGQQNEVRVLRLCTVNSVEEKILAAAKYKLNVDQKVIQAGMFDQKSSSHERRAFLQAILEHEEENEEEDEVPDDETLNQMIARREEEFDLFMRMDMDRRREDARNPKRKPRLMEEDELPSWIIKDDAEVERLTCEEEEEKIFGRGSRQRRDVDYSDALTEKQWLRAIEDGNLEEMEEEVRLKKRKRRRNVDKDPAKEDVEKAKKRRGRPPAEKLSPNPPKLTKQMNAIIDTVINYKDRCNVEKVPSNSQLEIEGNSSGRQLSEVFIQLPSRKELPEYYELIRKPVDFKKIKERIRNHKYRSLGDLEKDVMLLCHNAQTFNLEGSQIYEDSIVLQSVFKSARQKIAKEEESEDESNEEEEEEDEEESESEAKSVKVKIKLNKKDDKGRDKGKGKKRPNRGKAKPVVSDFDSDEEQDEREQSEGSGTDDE

Experiment [2] concerns the target T2, SMARCA4 (Homo sapiens, UniProt P51532).
T2 construct: SMARCA2/SMARCA4 protein degradation selectivity in MV4-11 cells; endogenous in cells; host or cells: MV4-11
Nature of the experiment: SMARCA4 Western blot degradation in MV4-11 cells. The note with it: for Dmax: MV4-11, MV4-11 cells, read-out: SMARCA4 MSD MV411 degradation 24 h: average Dmax %; for Dmax / DC50: 24 h; for DC50 / SMARCA4 MSD MV411 degradation 24 h: average Dmax %: MV4-11 cells; for DC50: read-out: SMARCA4 MSD MV411 degradation 24 h: Mean external-Abs DC50. In outline: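 MV4-11 cells (4×10^6/well) treated with compound for 24 h, lysed in RIPA with protease/phosphatase inhibitors, and SMARCA2, SMARCA4 and beta-actin detected by Western blot with LI-COR readout. Values reported as letter-coded DC50, 24 h Dmax % and SMARCA2/4 selectivity fold.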
(A western blot detects proteins with antibodies after separation by electrophoresis.)

Experiment [3] has as its target T1, SMARCA2. Nature of the experiment: SMARCA2 Western blot degradation in MV4-11 cells. More on the design: SMARCA2/SMARCA4 protein degradation selectivity in MV4-11 cells; endogenous in cells; host or cells: MV4-11. The note with it: for Dmax: MV4-11, MV4-11 cells, read-out: SMARCA2 MSD MV411 degradation 24 h: average Dmax %; for Dmax / DC50 / SMARCA2 MSD MV411 degradation 24 h: average Dmax %: 24 h; for DC50 / Selectivity in MV411 / SMARCA2 MSD MV411 degradation 24 h: average Dmax %: MV4-11 cells; for DC50: read-out: SMARCA2 MSD MV411 degradation 24 h: Mean external-Abs DC50; for Selectivity in MV411: SMARCA2/4 selectivity.

T2 sequence (P51532 whole entry): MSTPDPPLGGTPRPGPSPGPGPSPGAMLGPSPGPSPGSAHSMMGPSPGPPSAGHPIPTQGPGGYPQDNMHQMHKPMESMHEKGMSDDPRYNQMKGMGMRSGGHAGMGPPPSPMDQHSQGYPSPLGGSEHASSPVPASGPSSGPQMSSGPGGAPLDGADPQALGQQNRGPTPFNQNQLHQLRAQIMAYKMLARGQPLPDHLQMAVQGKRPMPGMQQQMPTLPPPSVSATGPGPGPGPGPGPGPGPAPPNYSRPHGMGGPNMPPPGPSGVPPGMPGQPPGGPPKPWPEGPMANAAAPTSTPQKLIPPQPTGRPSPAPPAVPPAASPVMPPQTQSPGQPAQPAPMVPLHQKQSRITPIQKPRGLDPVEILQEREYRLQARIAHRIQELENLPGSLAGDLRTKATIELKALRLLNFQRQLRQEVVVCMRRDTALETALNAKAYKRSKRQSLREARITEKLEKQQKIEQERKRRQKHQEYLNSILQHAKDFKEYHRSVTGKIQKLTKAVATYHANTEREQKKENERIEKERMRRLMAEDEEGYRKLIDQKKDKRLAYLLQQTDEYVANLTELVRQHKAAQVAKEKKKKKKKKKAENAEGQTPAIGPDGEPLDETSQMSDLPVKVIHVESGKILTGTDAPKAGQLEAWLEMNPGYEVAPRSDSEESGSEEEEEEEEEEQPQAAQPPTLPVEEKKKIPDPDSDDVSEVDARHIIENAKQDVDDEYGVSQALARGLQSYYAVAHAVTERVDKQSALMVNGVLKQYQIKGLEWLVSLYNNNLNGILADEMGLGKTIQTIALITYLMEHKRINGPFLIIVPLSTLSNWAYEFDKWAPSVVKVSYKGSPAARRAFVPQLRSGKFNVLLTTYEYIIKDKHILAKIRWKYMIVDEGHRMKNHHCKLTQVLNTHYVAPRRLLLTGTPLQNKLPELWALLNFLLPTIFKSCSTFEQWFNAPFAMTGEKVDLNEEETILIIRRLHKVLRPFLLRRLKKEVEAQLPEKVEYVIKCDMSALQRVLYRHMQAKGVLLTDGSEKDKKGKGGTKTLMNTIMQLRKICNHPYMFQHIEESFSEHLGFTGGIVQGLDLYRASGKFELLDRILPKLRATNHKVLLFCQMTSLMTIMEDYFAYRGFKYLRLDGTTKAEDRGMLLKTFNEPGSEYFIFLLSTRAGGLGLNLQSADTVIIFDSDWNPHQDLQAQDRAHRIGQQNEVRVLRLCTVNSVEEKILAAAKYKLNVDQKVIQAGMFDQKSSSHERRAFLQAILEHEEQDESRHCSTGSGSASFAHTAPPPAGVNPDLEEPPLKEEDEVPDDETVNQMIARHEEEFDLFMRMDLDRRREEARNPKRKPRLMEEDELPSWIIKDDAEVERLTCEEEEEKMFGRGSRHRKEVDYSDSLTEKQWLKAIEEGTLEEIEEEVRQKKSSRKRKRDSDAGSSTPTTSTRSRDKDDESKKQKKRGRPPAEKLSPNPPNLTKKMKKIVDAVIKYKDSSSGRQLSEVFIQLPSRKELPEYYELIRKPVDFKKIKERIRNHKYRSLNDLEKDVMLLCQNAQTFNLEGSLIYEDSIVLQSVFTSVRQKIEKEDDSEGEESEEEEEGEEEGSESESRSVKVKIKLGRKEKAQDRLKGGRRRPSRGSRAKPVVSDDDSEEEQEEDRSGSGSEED

For orientation: Dmax means the largest share of the target that was removed. For orientation: DC50 means the concentration at which degradation of the target reaches its halfway point. For the compound `C#Cc1ccc([C@H](C)NC(=O)[C@@H]2C[C@@H](O)CN2C(=O)[C@H](c2cc(OCCN3CCC(N4CCC(N5CCC(CN6CCN7c8cc(-c9ccccc9O)nnc8NC[C@H]7C6)CC5)CC4)CC3)no2)C(C)C)cc1` (single isomer, unassigned) [I-333], the Dmax is above 90% in experiment [1], 70 to 90% in experiment [2] and above 90% in experiment [3]. The DC50 was 10 to 50 nM in experiment [1], 10 to 100 nM in experiment [2] and below 1 nM in experiment [3]. Further, the “Selectivity in MV411” value in experiment [3] was “C (C (10-100 fold))”.

With `C#Cc1ccc(CNC(=O)[C@@H]2C[C@@H](O)CN2C(=O)[C@@H](NC(=O)[C@H]2CCC3(CC2)C[C@H](N2CCN(c4cnc(N5CCN6c7cc(-c8ccccc8O)nnc7NC[C@H]6C5)nc4)CC24CC4)C3)C(C)(C)C)cc1` (stereo partly shown) [I-267], in experiment [1], the “SMARCA2 MSD A549 degradation 24 h: Average Dmax %” value is given as “B (B (>70-90% degradation))” and the DC50 lay in the range of 50 to 100 nM. In experiment [2], the “SMARCA4 MSD MV411 degradation 24 h: average Dmax %” value is “D (D (<50% degradation))” and the DC50 was above 100 nM. For the same compound, in experiment [3], the “SMARCA2 MSD MV411 degradation 24 h: average Dmax %” value is “B (B (>70-90% degradation))”, the DC50 lay within 10 to 100 nM and the “Selectivity in MV411” value is on record as “B (B (>100-500 fold))”.

Regarding `C#Cc1ccc(CNC(=O)[C@@H]2C[C@@H](O)CN2C(=O)[C@@H](NC(=O)[C@H]2CC3(C2)C[C@H](N2CCC(N4CCC(N5CCN6c7cc(-c8ccccc8O)nnc7NC[C@H]6C5)CC4)CC2)C3)C(C)(C)CCO)cc1` (single isomer, unassigned) [I-365], in experiment [1], the “SMARCA2 MSD A549 degradation 24 h: Average Dmax %” value is “A (A (>90% degradation))” and the DC50 is above 100 nM. Further, in experiment [2], the “SMARCA4 MSD MV411 degradation 24 h: average Dmax %” value was “D (D (<50% degradation))” and the DC50 was above 100 nM. Further, in experiment [3], the “SMARCA2 MSD MV411 degradation 24 h: average Dmax %” value was “B (B (>70-90% degradation))”, the DC50 lay in the range of 1 to 10 nM and the “Selectivity in MV411” value was “A (A (>500 fold))”.

Turning to `C#Cc1ccc(CNC(=O)[C@@H]2C[C@@H](O)CN2C(=O)[C@@H](NC(=O)N2CC3(CC(N4CCC(c5cnc(N6CCc7[nH]c8nnc(-c9ccccc9O)cc8c7[C@H]6C)nc5)CC4)C3)C2)C(C)(C)C)c(C)c1` [I-270], in experiment [1], the Dmax was above 90% and the DC50 was below 10 nM. In experiment [2], the Dmax was above 90% and the DC50 was above 100 nM. In experiment [3], the Dmax is above 90%, the half-maximal degradation concentration (DC50) was 1 to 10 nM and the “Selectivity in MV411” value is “C (C (10-100 fold))”.

For `C#Cc1ccc(CNC(=O)[C@@H]2C[C@@H](O)CN2C(=O)[C@@H](N(C)C(=O)N2CC3(CC(N4CCC(c5cnc(N6CCc7[nH]c8nnc(-c9ccccc9O)cc8c7[C@H]6C)nc5)CC4)C3)C2)C(C)(C)C)cc1` [I-139], in experiment [1], the Dmax was below 50% and the DC50 was above 100 nM. Further, in experiment [2], the Dmax is 50 to 70% and the DC50 was above 100 nM. Also, in experiment [3], the Dmax was below 50%, the DC50 is above 100 nM and the “Selectivity in MV411” value was “C (C (10-100 fold))”.

As to `C#Cc1ccc(CNC(=O)[C@@H]2C[C@@H](O)CN2C(=O)[C@@H](NC(=O)N2CC3(CC(CN4CCC(c5cnc(N6CCc7[nH]c8nnc(-c9ccccc9O)cc8c7[C@H]6C)nc5)CC4)C3)C2)C(C)(C)C)cc1` [I-410], the values for the Dmax in experiment [1], in experiment [2] and in experiment [3] were above 90%, 70 to 90% and 70 to 90%, respectively. For the same compound, the values for the DC50 in experiment [1], in experiment [2] and in experiment [3] were 10 to 50 nM, above 100 nM and 1 to 10 nM, respectively. For the same compound, the “Selectivity in MV411” value in experiment [3] was “C (C (10-100 fold))”.

For `C#Cc1ccc(CNC(=O)[C@@H]2C[C@@H](O)CN2C(=O)[C@@H](NC(=O)[C@H]2CCC3(CC2)C[C@H](N2CCC(c4cnc(N5CCN6c7cc(-c8ccccc8O)nnc7NC[C@H]6C5)nc4)CC2)C3)C(C)(C)C)c(OCCCN(C)C)c1` (single isomer, unassigned) [I-129], the Dmax in experiment [1], in experiment [2] and in experiment [3] was above 90% throughout. Further, the DC50 fell in the range of 10 to 50 nM in experiment [1], 10 to 100 nM in experiment [2] and 1 to 10 nM in experiment [3]. Further, in experiment [3], the “Selectivity in MV411” value is “C (C (10-100 fold))”.

Consider `C#Cc1ccc(CNC(=O)[C@@H]2C[C@@H](O)CN2C(=O)[C@@H](NC(=O)N2CCN(CC3CCN(c4cnc(N5CCc6[nH]c7nnc(-c8ccccc8O)cc7c6[C@@H]5C)nc4)CC3)CC2)C(C)(C)C)cc1` [I-160], for which the Dmax in experiment [1] is above 90%; in experiment [2] it was above 90%; in experiment [3] it was 70 to 90%. The values for the DC50 in experiment [1], in experiment [2] and in experiment [3] were above 100 nM, above 100 nM and 10 to 100 nM, respectively. In addition, the “Selectivity in MV411” value in experiment [3] is given as “D (D (<10 fold))”.

`C#Cc1cnc(CNC(=O)[C@@H]2C[C@@H](O)CN2C(=O)[C@@H](NC(=O)[C@H]2CCC3(CC2)C[C@H](N2CCC(c4cnc(N5CCN6c7cc(-c8ccccc8O)nnc7NC[C@H]6C5)nc4)CC2)C3)C(C)(C)C)c(OC)c1` (single isomer, unassigned) [I-286]: in experiment [1], the Dmax was 50 to 70% and the DC50 was above 100 nM. Also, in experiment [2], the Dmax is below 50% and the half-maximal degradation concentration (DC50) is above 100 nM. In addition, in experiment [3], the Dmax was below 50%, the DC50 was above 100 nM and the “Selectivity in MV411” value is “D (D (<10 fold))”.

In the case of `C#Cc1cnc(CNC(=O)[C@@H]2C[C@@H](O)CN2C(=O)C(c2cc(OCCN3CCC(N4CCC(N5CCC(CN6CCN7c8cc(-c9ccccc9O)nnc8NC[C@H]7C6)CC5)CC4)CC3)no2)C(C)C)c(OC)c1` (stereo partly shown) [I-303], in experiment [1], the Dmax is above 90% and the DC50 is above 100 nM. Further, in experiment [2], the Dmax was below 50% and the half-maximal degradation concentration (DC50) is above 100 nM. In addition, in experiment [3], the Dmax was in the range of 70 to 90%, the DC50 was in the range of 10 to 100 nM and the “Selectivity in MV411” value was “B (B (>100-500 fold))”.

In the case of `C#Cc1ccc([C@H](C)NC(=O)[C@@H]2C[C@@H](O)CN2C(=O)[C@@H](NC(=O)N2CC3(CC(N4CCC(c5cnc(N6CCc7[nH]c8nnc(-c9ccccc9O)cc8c7[C@H]6C)cn5)CC4)C3)C2)C(C)(C)C)cc1` [I-250], in experiment [1], the Dmax is above 90% and the DC50 lay in the range of 10 to 50 nM. For the same compound, in experiment [2], the Dmax is 70 to 90% and the DC50 is above 100 nM. In experiment [3], the Dmax was above 90%, the DC50 lay within 10 to 100 nM and the “Selectivity in MV411” value is reported as “C (C (10-100 fold))”.

On to `C#Cc1ccc(CNC(=O)[C@@H]2C[C@@H](O)CN2C(=O)[C@@H](NC(=O)N2CC3(CC(N4CCC(c5cnc(N6CCc7[nH]c8nnc(-c9ccccc9O)cc8c7[C@H]6C)nc5)CC4)C3)C2)C(C)(C)C)cc1OC` [I-319], for which the Dmax is above 90% in experiment [1], 50 to 70% in experiment [2] and 70 to 90% in experiment [3]. Besides, the DC50 in experiment [1] was 10 to 50 nM; in experiment [2] it was above 100 nM; in experiment [3], 1 to 10 nM. The “Selectivity in MV411” value in experiment [3] is given as “B (B (>100-500 fold))”.

Regarding `C#Cc1ccc(CNC(=O)[C@@H]2C[C@@H](O)CN2C(=O)[C@@H](NC(=O)[C@H]2CCC3(CC2)C[C@H](N2CCC(c4cnc(N5CCN6c7cc(-c8cccc(F)c8O)nnc7NC[C@H]6C5)nc4)CC2)C3)C(C)(C)C)cc1` (single isomer, unassigned) [I-102], in experiment [1], the “SMARCA2 MSD A549 degradation 24 h: Average Dmax %” value is “A (A (>90% degradation))” and the DC50 is 10 to 50 nM. In experiment [2], the Dmax is 50 to 70% and the DC50 is above 100 nM. Further, in experiment [3], the Dmax lay in the range of 70 to 90%, the DC50 fell in the range of 1 to 10 nM and the “Selectivity in MV411” value is “C (C (10-100 fold))”.
